For 30 compounds, IC50 results are on record in US12527779B2, “Prostaglandin E2 (PGE2) EP4 receptor antagonists” (Domain Therapeutics, priority 2019, dated 2026).

Where a name gives a salt, the structure may show the parent alone. A value given as a limit tells only on which side of the number the result lay.

T1 sequence (P35408 whole entry): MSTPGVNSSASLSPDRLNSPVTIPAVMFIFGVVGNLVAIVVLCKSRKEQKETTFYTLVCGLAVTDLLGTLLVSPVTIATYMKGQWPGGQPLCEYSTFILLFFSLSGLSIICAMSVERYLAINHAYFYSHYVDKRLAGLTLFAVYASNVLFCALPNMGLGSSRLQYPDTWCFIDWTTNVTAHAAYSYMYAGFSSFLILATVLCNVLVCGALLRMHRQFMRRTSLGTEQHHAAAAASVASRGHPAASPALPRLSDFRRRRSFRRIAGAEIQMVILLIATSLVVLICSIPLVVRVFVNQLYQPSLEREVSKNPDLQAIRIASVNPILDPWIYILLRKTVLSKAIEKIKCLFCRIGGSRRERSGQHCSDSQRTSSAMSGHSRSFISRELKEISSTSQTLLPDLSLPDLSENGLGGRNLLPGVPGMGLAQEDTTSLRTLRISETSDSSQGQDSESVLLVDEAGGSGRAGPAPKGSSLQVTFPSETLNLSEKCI

The test addresses T1, human EP4 (hEP4) receptor (Homo sapiens, UniProt P35408).
T1 construct: expressed in transfected cells; host or cells: HEK-293 T cells, transient co-transfection with polyethylenimine
In words: In vitro human EP4 functional antagonist activity using BRET biosensors (cAMP EPAC biosensor, TCS2510 stimulation). The test is classed as cell-based. The following applies: antagonist activity vs EC60 TCS2510, hEP4 in HEK-293 T cells. Put shortly: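 Antagonism measured as inhibition of EC60 TCS2510-induced cAMP BRET signal (EPAC luciferase/GFP sensor) in transiently hEP4-expressing HEK-293T cells, following 5 min compound preincubation and 10 min luminescence recording. Plates equilibrated 1 h at 22 °C in HEPES buffer; 10 concentrations over 4.5 logs, duplicate in two independent experiments, sigmoidal variable-slope IC50.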
A word on the IC50: it is the concentration needed to halve the response being measured. Lower therefore signals greater potency. Consider `O=C(O)c1ccc(C2(NC(=O)C3(N4CC[C@@H](Oc5cccc(OC(F)(F)F)c5)C4)CCOCC3)CC2)cc1` [Example 147, 4-[1-[[4-[(3R)-3-[3-(Trifluoromethoxy)phenoxy]pyrrolidin-1-yl]tetrahydropyran-4-carbonyl]amino]cyclopropyl]benzoic acid, hydrochloride], for which the IC50 was less than 100 nM. As for `C[C@H](NC(=O)C1(N2CC[C@@H](Oc3cccc(C(F)(F)F)c3)C2)CCOCC1)c1ccc(-c2cn[nH]c2)cc1` [Example 176, N—((S)-1-(4-(1H-Pyrazol-4-yl)phenyl)ethyl)-4-((R)-3-(3-(trifluoromethyl)phenoxy)pyrrolidin-1-yl)tetrahydro-2H-pyran-4-carboxamide, hydrochloride], the half-inhibitory concentration (IC50) was less than 100 nM. The result for `C[C@H](NC(=O)C1(c2cccc(OCc3ccccc3)c2)CCOCC1)c1ccc(C(=O)O)cc1` [Example 99, 4-[(1S)-1-[[4-(3-Benzyloxyphenyl)tetrahydropyran-4-carbonyl]amino]ethyl]benzoic acid] reads less than 1000 nM; that for `C[C@H](NC(=O)C1(NCCOc2ccccc2)CCC(F)(F)CC1)c1ccc(C(=O)O)cc1` [Example 65, 4-[(1S)-1-[[4,4-Difluoro-1-(2-phenoxyethylamino)cyclohexanecarbonyl]amino]ethyl]benzoic acid, hydrochloride], less than 1000 nM; that for `C[C@H](NC(=O)C1(c2ccc(OCCC3CCCCC3)cn2)CCCC1)c1ccc(C(=O)O)cc1` [Example 128, 4-[(1S)-1-[[1-[5-(2-Cyclohexylethoxy)-2-pyridyl]cyclopentanecarbonyl]amino]ethyl]benzoic acid], less than 1000 nM.

`C[C@H](NC(=O)C1(c2ccc(OCC3CCCCC3)nc2)CCCC1)c1ccc(C(=O)O)cc1` [Example 129, 4-[(1S)-1-[[1-[6-(Cyclohexylmethoxy)-3-pyridyl]cyclopentanecarbonyl]amino]ethyl]benzoic acid] registered an IC50 of less than 100 nM. The result for `Cc1ccc(OCCN(C)C2(C(=O)NC3(c4ccc(C(=O)O)cc4)CC3)CCOCC2)cc1` [Example 37, 4-[1-[[4-[2-(4-Methylphenoxy)ethyl-methyl-amino]tetrahydropyran-4-carbonyl]amino]cyclopropyl]benzoic acid, hydrochloride] reads less than 1000 nM; that for `COc1ccc([C@H](C)NC(=O)C2(N3CC[C@@H](Oc4cccc(C(F)(F)F)c4)C3)CCOCC2)cc1` [Example 195, N—((S)-1-(4-Methoxyphenyl)ethyl)-4-((R)-3-(3-(trifluoromethyl)phenoxy)pyrrolidin-1-yl)tetrahydro-2H-pyran-4-carboxamide, hydrochloride], less than 100 nM. Regarding `C[C@H](NC(=O)C1(N(C)CCOc2ccccc2)CCOCC1)c1ccc(C(=O)N(C)C)cc1` [Example 5, N-[(1S)-1-[4-(Dimethylcarbamoyl)phenyl]ethyl]-4-[methyl(2-phenoxyethyl)amino]tetrahydropyran-4-carboxamide], the IC50 is less than 1000 nM. The result for `CNC(=O)c1ccc([C@H](C)NC(=O)C2(N3CC[C@@H](Oc4cccc(C(F)(F)F)c4)C3)CCOCC2)cc1` [Example 169, hydrochloride] reads less than 100 nM.

The compound `C[C@H](NC(=O)C1(N2CC[C@@H](Oc3cccc(C(F)(F)F)c3)C2)CCOCC1)c1ccc(C#N)cc1` [Example 182, N—((S)-1-(4-Cyanophenyl)ethyl)-4-((R)-3-(3-(trifluoromethyl)phenoxy)pyrrolidin-1-yl)tetrahydro-2H-pyran-4-carboxamide, hydrochloride] had an IC50 of less than 100 nM. As to `COc1ccccc1OCCN(C)C1(C(=O)NC2(c3ccc(C(=O)O)cc3)CC2)CCOCC1` [Example 39, 4-[1-[[4-[2-(2-Methoxyphenoxy)ethyl-methyl-amino]tetrahydropyran-4-carbonyl]amino]cyclopropyl]benzoic acid, hydrochloride], the IC50 is less than 1000 nM. `C[C@H](NC(=O)C1(N2CC[C@@H](Oc3cccc(C(F)(F)F)c3)C2)CCOCC1)c1cccnc1` [Example 185, N—((S)-1-(Pyridin-3-yl)ethyl)-4-((R)-3-(3-(trifluoromethyl)phenoxy)pyrrolidin-1-yl)tetrahydro-2H-pyran-4-carboxamide, hydrochloride] displayed an IC50 of less than 1000 nM. The figure for `CN(CCOc1cccc(Cl)c1)C1(C(=O)NC2(c3ccc(C(=O)O)cc3)CC2)CCOC1` (stereo not drawn) [Example 77, 4-[1-[[3-[2-(3-Chlorophenoxy)ethyl-methyl-amino]tetrahydrofuran-3-carbonyl]amino]cyclopropyl]benzoic acid, hydrochloride] is less than 100 nM; for `C[C@H](NC(=O)C1(N2CC[C@@H](Oc3cccc(C(F)(F)F)c3)C2)CCOCC1)c1ccc(-c2nn[nH]n2)cc1` [Example 175, N—((S)-1-(4-(2H-Tetrazol-5-yl)phenyl)ethyl)-4-((R)-3-(3-(trifluoromethyl)phenoxy)pyrrolidin-1-yl)tetrahydro-2H-pyran-4-carboxamide, hydrochloride] it is less than 100 nM; for `C[C@H](NC(=O)C1(N2CCC[C@@H](Oc3cccc(Cl)c3)C2)CCOCC1)c1ccc(C(=O)O)cc1` [Example 136, 4-[(1S)-1-[[4-[(3R)-3-(3-Chlorophenoxy)-1-piperidyl]tetrahydropyran-4-carbonyl]amino]ethyl]benzoic acid, hydrochloride] it is less than 100 nM.

Regarding `C[C@H](NC(=O)C1(N2CC[C@@H](Oc3cccc(C(F)(F)F)c3)C2)CCOCC1)c1ccc(S(C)(=O)=O)cc1` [Example 179, N—((S)-1-(4-(Methylsulfonyl)phenyl)ethyl)-4-((R)-3-(3-(trifluoromethyl)phenoxy)pyrrolidin-1-yl)tetrahydro-2H-pyran-4-carboxamide, hydrochloride], the IC50 is less than 100 nM. The result for `C[C@H](NC(=O)C1(N2CC[C@@H](Oc3cccc(Cl)c3)C2)CCC1)c1ccc(C(N)=O)cc1` [Example 172, 4-[(1S)-1-[[1-[(3R)-3-(3-Chlorophenoxy)pyrrolidin-1-yl]cyclobutane-1-carbonyl]amino]ethyl]benzamide, hydrochloride] reads less than 100 nM; that for `C[C@H](NC(=O)C1(N2CC[C@@H](Oc3cccc(C(F)(F)F)c3)C2)CCOCC1)c1ccc(F)cc1` [Example 187, N—((S)-1-(4-Fluorophenyl)ethyl)-4-((R)-3-(3-(trifluoromethyl)phenoxy)pyrrolidin-1-yl)tetrahydro-2H-pyran-4-carboxamide, hydrochloride], less than 1000 nM; that for `C[C@H](NC(=O)C1(c2ccnc(OCC3CCCCC3)c2)CCOCC1)c1ccc(C(=O)O)cc1` [Example 116, 4-[(1S)-1-[[4-[2-(Cyclohexylmethoxy)-4-pyridyl]tetrahydropyran-4-carbonyl]amino]ethyl]benzoic acid], less than 1000 nM.

`C[C@H](NC(=O)C1(c2ccc(OCC3CCCCC3)cc2)CCOCC1)c1ccc(C(=O)O)cc1` [Example 89, 4-[(1S)-1-[[4-[4-(Cyclohexylmethoxy)phenyl]tetrahydropyran-4-carbonyl]amino]ethyl]benzoic acid] showed an IC50 of less than 1000 nM. The result for `C[C@H](NC(=O)C1(N(C)CCOc2ccccc2)CCOC1)c1ccc(C(=O)O)cc1` (stereo partly drawn) [Example 74, 4-[(1S)-1-[[3-[Methyl(2-phenoxyethyl)amino]tetrahydrofuran-3-carbonyl]amino]ethyl]benzoic acid, hydrochloride] reads less than 100 nM; that for `C[C@H](NC(=O)C1(c2cccc(OCC3CCCCC3)c2)CCOCC1)c1ccc(C(=O)O)cc1` [Example 97, 4-[(1S)-1-[[4-[3-(Cyclohexylmethoxy)phenyl]tetrahydropyran-4-carbonyl]amino]ethyl]benzoic acid], less than 1000 nM; that for `C[C@H](NC(=O)C1(N2CC[C@@H](Oc3ccccc3)C2)CCOCC1)c1ccc(C(=O)O)cc1` [Example 152, 4-[(1S)-1-[[4-((3R)-3-Phenoxypyrrolidin-1-yl)tetrahydropyran-4-carbonyl]amino]ethyl]benzoic acid, hydrochloride], less than 100 nM. The result for `C[C@H](NC(=O)C1(NCc2cccc(F)c2)CCOCC1)c1ccc(C(=O)O)cc1` [Example 20, 4-[(1S)-1-[[4-[(3-Fluorophenyl)methylamino]tetrahydropyran-4-carbonyl]amino]ethyl]benzoic acid, hydrochloride] reads less than 1000 nM. `C[C@H](NC(=O)C1(N2CC[C@@H](Oc3cccc(Cl)c3)C2)CCCC1)c1ccc(C(=O)O)cc1` [Example 157, 4-[(1S)-1-[[1-[(3R)-3-(3-Chlorophenoxy)pyrrolidin-1-yl]cyclopentane-1-carbonyl]amino]ethyl]benzoic acid, hydrochloride] came in with an IC50 of less than 100 nM. `C[C@H](NC(=O)C1(N2CC[C@@H](OC3CCCCC3)C2)CCOCC1)c1ccc(C(=O)O)cc1` [Example 154, 4-[(1S)-1-[[4-[(3R)-3-(Cyclohexyloxy]pyrrolidin-1-yl]tetrahydropyran-4-carbonyl]amino]ethyl]benzoic acid, hydrochloride] yielded an IC50 of less than 100 nM.

`C[C@H](NC(=O)C(C)(C)N1CC[C@@H](Oc2cccc(C(F)(F)F)c2)C1)c1ccc(S(C)(=O)=O)cc1` [Example 204, 2-Methyl-N—((S)-1-(4-(methylsulfonyl)phenyl)ethyl)-2-((R)-3-(3-(trifluoromethyl)phenoxy)pyrrolidin-1-yl)propanamide, hydrochloride] returned an IC50 of less than 1000 nM. The figure for `C[C@H](NC(=O)C(C)(C)N1CC[C@@H](Oc2cccc(Cl)c2)C1)c1ccc(C(=O)O)cc1` [Example 161, hydrochloride] is less than 100 nM; for `Cc1cccc(OCCN(C)C2(C(=O)NC3(c4ccc(C(=O)O)cc4)CC3)CCOCC2)c1` [Example 35, 4-[1-[[4-[2-(3-Methylphenoxy)ethyl-methyl-amino]tetrahydropyran-4-carbonyl]amino]cyclopropyl]benzoic acid, hydrochloride] it is less than 100 nM.
